Patent US12161745B2, “Peptides and compositions for use in cosmetics” (LIPOTRUE, S.L., priority 2019, dated 2024)
Where a SMILES comes first, the peptide text is derived from it. The star is where a group is joined. Palmitoyl = CCCCCCCCCCCCCCCC(=O)*

Assays:
Format in all cases: cell-based
[1] = system: HEKa (Human Epidermal Keratinocytes, adult) cells; experiment: MTT viability assay (cytotoxicity) in HEKa cells; conditions: 0.001-0.1 mg/mL, 24 h, vs basal state
Protocol: (§1) The cytotoxicity of peptide Pal-SEQ ID NO: 1-NH2 was analysed by means of viability assay in HEKa (Human Epidermal Keratinocytes, adult) and HDFa (Human Dermal Fibroblasts, adult) cells.
(§2) Cytotoxicity was assessed by means of the MTT assay. Briefly HEKa and HDFa cells were seeded in 96-well plates at a concentration of 1×10^5 cells/mL and incubated in Epilife Medium supplemented with 1% (v/v) EDGS and 1% (v/v) of Penicillin/Streptomycin (for HEKa cells) and Medium 106 supplemented with 2% (v/v) of Low Serum Growth Supplement (LSGS) (for HDFa cells) for 24 h at 37° C., 5% CO2 and saturated humidity. Cells were then treated with different concentrations of peptide Pal-SEQ ID NO: 1-NH2 (0.001 mg/mL, 0.005 mg/mL, 0.01 mg/mL, 0.05 mg/mL, and 0.1 mg/mL for HEKa cells; and 0.001 mg/mL, 0.005 mg/mL and 0.01 mg/mL for HDFa cells) in triplicates, for MTT evaluation. […] The plates were placed on a shaker for 5 minutes for complete solubilisation of the crystals and then the absorbance at 450 nm of each well was determined using the microplate reader Multiskan FC, which is directly proportional to the number of living cells in culture. Absorbance values were normalized using the data obtained for non-treated cells (basal state).

[2] = system: HDFa (Human Dermal Fibroblasts, adult) cells; experiment: MTT viability assay (cytotoxicity) in HDFa cells; conditions: 0.001-0.01 mg/mL, 24 h, vs basal state
Protocol: as §1, §2

[3] = system: human organotypical skin explant cultures (hOSECs); experiment: LDH cytotoxicity assay in human organotypical skin explant cultures
Protocol: (§3) In this case healthy and aged human organotypical skin explant cultures (hOSECs) were used as experimental systems.
(§4) The aged hOSEC was obtained by exposition of the healthy hOSEC to hydrocortisone (5 μg/mL) for the first five days of the study.
The total number of treatment groups was as follows: • 1. Control group (negative control): Untreated hOSEC. • 2. Aged hOSEC: hOSECs treated with hydrocortisone at 5 μg/mL (Abraham A, Roga G. (2014) Topical steroid-damaged skin. Indian J Dermatol. 59(5), 456-9.) • 3. Aged hOSEC+Product A (cream, this is, placebo): hOSECs treated with hydrocortisone at 5 μg/mL and incubated with product A (10 μL). • 4. […]
The LDH Cytotoxicity test is a colorimetric assay that quantitatively measures lactate dehydrogenase (LDH), a stable cytosolic enzyme that is released into the culture medium supernatant upon damage of the cytoplasmic membrane. The released LDH in culture medium supernatants is measured for 30 minutes coupled enzymatic reaction: LDH oxidizes lactate to pyruvate which then reacts with the tetrazolium salt WST-1 to form formazan. The increase in the amount of formazan measured in the culture supernatant directly correlates to the increase in the number of lysed cells (damage) in the skin explant. […]
The results of this assay were calculated considering the negative control, this is, untreated hOSEC as 100% of the LDH normal concentration.

[4] = system: human organotypical skin explant cultures (hOSECs); experiment: Resazurin assay in human organotypical skin explant cultures; conditions: 5 μg/mL
Protocol: as §3, §4
The total number of treatment groups was as follows: • 1. Control group (negative control): Untreated hOSEC. • 2. Aged hOSEC: hOSECs treated with hydrocortisone at 5 μg/mL (Abraham A, Roga G. (2014) Topical steroid-damaged skin. Indian J Dermatol. 59(5), 456-9.) • 3. Aged hOSEC+Product A (cream, this is, placebo): hOSECs treated with hydrocortisone at 5 μg/mL and incubated with product A (10 μL). • 4. Aged hOSEC+Product B (cream with Pal-SEQ ID NO: 1-NH2 at a concentration of 0.005 mg/mL): hOSECs treated with hydrocortisone at 5 μg/mL and incubated with Product B (10 μL).
The total duration of the assay was of 10 days (days 1 to 10). Hydrocortisone was applied in the appropriate or corresponding groups each day on days 1 to 5. […]
For the resazurin assay, the skin explants were treated with 6 μM of resazurin in NaCl solution for 1 hour. […] The resorufin formed was quantified in a fluorometer plate reader.
The fluorescent signal was monitored using 530-560 nm excitation wavelength and 590 nm emission wavelength.
The results of the resazurin assay were calculated considering the negative control, untreated healthy hOSECs, as 100% viability. […]

Row | SMILES | viability of HEKa cells [1] | viability of HDFa cells [2] | toxicity deduced from LDH cytotoxicity assay and resazurin assay ([3]; cream with 0.005 mg/mL peptide on aged hOSEC) | adverse effect in hOSECs (LDH, plasma membrane damage) ([3]; hydrocortisone 5 μg/mL, days 1 to 5) | reduction of Resorufin percentage with respect to the Control group [4] [%]
1 | CCCCCCCCCCCCCCCC(=O)N[C@@H](Cc1c[nH]cn1)C(=O)N[C@@H](Cc1ccc(O)cc1)C(=O)N[C@@H](CCCNC(=N)N)C(=O)N[C@@H](C)C(N)=O [Pal-SEQ ID NO: 1-NH2, Pal-His-Tyr-Arg-Ala-NH2] (Palmitoyl-HYRA-NH2) | did not alter viability | did not alter viability | not toxic |  | 
2 | C[C@]12CCC(=O)C=C1CC[C@@H]1[C@@H]2[C@@H](O)C[C@@]2(C)[C@H]1CC[C@]2(O)C(=O)CO [hydrocortisone, reference compound] |  |  |  | did not produce any adverse effect | 10
